The text below walks through data of patent US20260258048A1, “LACTAM-CONTAINING IMIDAZOPYRIDAZINE IL-17 INHIBITOR COMPOUNDS” (Janssen Pharmaceutica NV, priority 2023, published 2026).

Structures are written as SMILES.

This assay has as its system IL-17A-induced G-CSF production in human normal keratinocyte (NHK). Nature of the assay: NHK assay: IL-17A-induced G-CSF production in normal human keratinocytes. It counts as cell-based. To be noted: Homo sapiens, Keratinocyte, 24 h, IL-17A 5 ng/mL, class of the average IC50 where tested more than once. The procedure: IL-17A acts directly on keratinocytes through binding to dimeric receptor IL-17RA/RC and drives the production of a number of inflammatory mediators known to be elevated in psoriasis lesional tissue. IL-17A small molecule inhibitors that block the IL-17A to interact with IL-17R would inhibit the IL-17A signaling in its targeted cells such as keratinocytes. The compound functional activity is evaluated for its impact on IL-17A-induced G-CSF production in human normal keratinocyte (NHK).
Adult normal human keratinocytes are cultured in keratinocyte growth medium (Lonza) in a flask till reaching ~90% confluence, then cells are transferred to a 384-well plate at density of 3000-4000 cell/well. Recombinant human IL-17A (Gibco PHC9174) is pre-incubated with titrated compound or DMSO for 1 h at rt then added to the cell culture plate. The final concentration of IL-17A is 5 ng/mL and DMSO is 0.2%, in the culture containing 5% FBS. Cells are cultured/treated for 24 h at 37° C. Supernatants are collected and G-CSF production is measured through HTRF technology using Human G-CSF Kit (CisBio). G-CSF concentration was extrapolated from the standard curve and IC50 is determined using GraphPad Prism. Cell viability is also evaluated using CellTiter-Glo kit (Promega) and effect of compound on cell viability is compared to DMSO control.
The term IC50 denotes the concentration at which inhibition is half-maximal. A higher IC50 goes with weaker potency in that assay. For `O=C(N[C@H](c1cn2ncc(C[C@@H]3C(=O)NCC[C@H]3C(F)(F)F)cc2n1)C1CCC(F)(F)CC1)c1nonc1C1CC1` (relative stereo) [Example 3, 4-Cyclopropyl-N—[(S)-(4,4-difluorocyclohexyl)-[7-[[(3S*,4R*)-2-oxo-4-(trifluoromethyl)-3-piperidyl]methyl]imidazo[1,2-b]pyridazin-2-yl]methyl]-1,2,5-oxadiazole-3-carboxamide], the IC50 is > 4000 nM.
The same measure for `O=C(N[C@H](c1cn2ncc(C[C@H]3C(=O)NCC[C@@H]3C(F)(F)F)cc2n1)C1CCC(F)(F)CC1)c1nonc1C1CC1` (relative stereo) [Example 4, 4-Cyclopropyl-N—[(S)-(4,4-difluorocyclohexyl)-[7-[[(3R*,4S*)-2-oxo-4-(trifluoromethyl)-3-piperidyl]methyl]imidazo[1,2-b]pyridazin-2-yl]methyl]-1,2,5-oxadiazole-3-carboxamide]: 400 to 4000 nM; for `O=C(N[C@H](c1cn2ncc(C[C@H]3CC[C@H](C(F)(F)F)NC3=O)cc2n1)C1CCC(F)(F)CC1)c1nonc1C1CC1` (relative stereo) [Example 29, 4-Cyclopropyl-N—((S)-(4,4-difluorocyclohexyl)(7-(((3R*,6R*)-2-oxo-6-(trifluoromethyl)piperidin-3-yl)methyl)imidazo[1,2-b]pyridazin-2-yl)methyl)-1,2,5-oxadiazole-3-carboxamide]: 400 to 4000 nM.
The same measure for `O=C(N[C@H](c1cn2ncc(C[C@H]3CC[C@@H](C(F)(F)F)NC3=O)cc2n1)C1CCC(F)(F)CC1)c1nonc1C1CC1` (relative stereo) [Example 30, 4-Cyclopropyl-N—((S)-(4,4-difluorocyclohexyl)(7-(((3R*,6S*)-2-oxo-6-(trifluoromethyl)piperidin-3-yl)methyl)imidazo[1,2-b]pyridazin-2-yl)methyl)-1,2,5-oxadiazole-3-carboxamide]: > 4000 nM.
For the molecule `O=C(N[C@H](c1cn2ncc(C[C@@H]3CC[C@H](C(F)(F)F)NC3=O)cc2n1)C1CCC(F)(F)CC1)c1nonc1C1CC1` (relative stereo) [Example 31, 4-Cyclopropyl-N—((S)-(4,4-difluorocyclohexyl)(7-(((3S*,6R*)-2-oxo-6-(trifluoromethyl)piperidin-3-yl)methyl)imidazo[1,2-b]pyridazin-2-yl)methyl)-1,2,5-oxadiazole-3-carboxamide], the concentration for half-maximal inhibition (IC50) was < 400 nM.
The same measure for `O=C(N[C@H](c1cn2ncc(C[C@@H]3CC[C@@H](C(F)(F)F)NC3=O)cc2n1)C1CCC(F)(F)CC1)c1nonc1C1CC1` (relative stereo) [Example 32, 4-Cyclopropyl-N—((S)-(4,4-difluorocyclohexyl)(7-(((3S*,6S*)-2-oxo-6-(trifluoromethyl)piperidin-3-yl)methyl)imidazo[1,2-b]pyridazin-2-yl)methyl)-1,2,5-oxadiazole-3-carboxamide]: > 4000 nM; for `O=C(N[C@H](c1cn2ncc(C[C@H]3C[C@@H](C(F)(F)F)CNC3=O)cc2n1)C1CCC(F)(F)CC1)c1nonc1C1CC1` (relative stereo) [Example 33, 4-Cyclopropyl-N—((S)-(4,4-difluorocyclohexyl)(7-(((3R*,5R*)-2-oxo-5-(trifluoromethyl)piperidin-3-yl)methyl)imidazo[1,2-b]pyridazin-2-yl)methyl)-1,2,5-oxadiazole-3-carboxamide]: 400 to 4000 nM; for `O=C(N[C@H](c1cn2ncc(C[C@H]3C[C@H](C(F)(F)F)CNC3=O)cc2n1)C1CCC(F)(F)CC1)c1nonc1C1CC1` (relative stereo) [Example 34, 4-Cyclopropyl-N—((S)-(4,4-difluorocyclohexyl)(7-(((3R*,5S*)-2-oxo-5-(trifluoromethyl)piperidin-3-yl)methyl)imidazo[1,2-b]pyridazin-2-yl)methyl)-1,2,5-oxadiazole-3-carboxamide]: > 4000 nM.
In turn, `CC(C)(CC[C@H](NC(=O)c1nonc1C1CC1)c1cn2ncc([C@@H](O)[C@H]3C[C@@H](C(F)(F)F)NC3=O)cc2n1)C(F)(F)F` (relative stereo) [Example 66, 4-Cyclopropyl-N—((S)-5,5,5-trifluoro-1-(7-((S*)-hydroxy((3R*,5S)-2-oxo-5-(trifluoromethyl)pyrrolidin-3-yl)methyl)imidazo[1,2-b]pyridazin-2-yl)-4,4-dimethylpentyl)-1,2,5-oxadiazole-3-carboxamide] gave an IC50 of 400 to 4000 nM.
With `CC(C)(CC[C@H](NC(=O)c1nonc1C1CC1)c1cn2ncc([C@@H](O)[C@@H]3C[C@@H](C(F)(F)F)NC3=O)cc2n1)C(F)(F)F` (relative stereo) [Example 67, 4-Cyclopropyl-N—((S)-5,5,5-trifluoro-1-(7-((S*)-hydroxy((3S*,5S)-2-oxo-5-(trifluoromethyl)pyrrolidin-3-yl)methyl)imidazo[1,2-b]pyridazin-2-yl)-4,4-dimethylpentyl)-1,2,5-oxadiazole-3-carboxamide] the figure was > 4000 nM; with `C[C@@H]1C[C@@H](Cc2cnn3cc([C@@H](NC(=O)c4nonc4C4CC4)C4CCC(F)(F)CC4)nc3c2)C(=O)N1` (relative stereo) [Example 84, Cyclopropyl-N—((S)-(4,4-difluorocyclohexyl)(7-(((3R*,5R*)-5-methyl-2-oxopyrrolidin-3-yl)methyl)imidazo[1,2-b]pyridazin-2-yl)methyl)-1,2,5-oxadiazole-3-carboxamide], > 4000 nM.
The same measure for `C[C@H]1CNC(=O)[C@@H]1Cc1cnn2cc([C@@H](NC(=O)c3nonc3C3CC3)C3CCC(F)(F)CC3)nc2c1` (relative stereo) [Example 87, 4-Cyclopropyl-N—[(S)-(4,4-difluorocyclohexyl)-[7-[[(3R*,4R*)-4-methyl-2-oxo-pyrrolidin-3-yl]methyl]imidazo[1,2-b]pyridazin-2-yl]methyl]-1,2,5-oxadiazole-3-carboxamide]: > 4000 nM.
The same measure for `CC[C@@H]1C[C@@H](Cc2cnn3cc([C@@H](NC(=O)c4nonc4C4CC4)C4CCC(F)(F)CC4)nc3c2)C(=O)N1` (relative stereo) [Example 90, 4-Cyclopropyl-N—[(S)-(4,4-difluorocyclohexyl)-[7-[[(3R*,5R*)-5-ethyl-2-oxo-pyrrolidin-3-yl]methyl]imidazo[1,2-b]pyridazin-2-yl]methyl]-1,2,5-oxadiazole-3-carboxamide]: < 400 nM; for `O=C(N[C@H](c1cn2ncc(CC3CC(C(F)(F)F)CNC3=O)cc2n1)C1CCC(F)(F)CC1)c1nonc1C1CC1` (single isomer, unassigned) [Example 35, 4-Cyclopropyl-N-((1S)-(4,4-difluorocyclohexyl)(7-(((3S*)-2-oxo-5-(trifluoromethyl)piperidin-3-yl)methyl)imidazo[1,2-b]pyridazin-2-yl)methyl)-1,2,5-oxadiazole-3-carboxamide]: 400 to 4000 nM; for `Cc1nonc1C(=O)N[C@@H](CCC(C)(C)C(F)(F)F)c1cn2ncc(C[C@H]3C[C@@H](C(F)(F)F)NC3=O)cc2n1` (single isomer, unassigned) [Example 37]: < 400 nM.
Consider `C[C@@]1(C(F)(F)F)CC(Cc2cnn3cc([C@@H](NC(=O)c4nonc4C4CC4)C4CCC(F)(F)CC4)nc3c2)C(=O)N1` (single isomer, unassigned) [Example 55, 4-Cyclopropyl-N—((S)-(4,4-difluorocyclohexyl(7-(((3S*,5S)-5-methyl-2-oxo-5-(trifluoromethyl)pyrrolidine-3-yl)methyl)imidazo[1,2-b]pyrrolidin-2-yl)methyl)-1,2,5-oxadiazole-3-carboxamide], for which the half-maximal inhibitory concentration (IC50) is < 400 nM.
As to `CC(C)(CC[C@H](NC(=O)c1nonc1C1CC1)c1cn2ncc(CC3C[C@@](C)(C(F)(F)F)NC3=O)cc2n1)C(F)(F)F` (single isomer, unassigned) [Example 57, 4-Cyclopropyl-N—((S)-5,5,5-trifluoro-4,4-dimethyl-1-(7-(((3S*,5S)-5-methyl-2-oxo-5-(trifluoromethyl)pyrrolidin-3-yl)methyl)imidazo[1,2-b]pyridazin-2-yl)pentyl)-1,2,5-oxadiazole-3-carboxamide], the half-maximal inhibitory concentration (IC50) was < 400 nM.
With `COC[C@]1(Cc2cnn3cc([C@@H](NC(=O)c4nonc4C4CC4)C4CCC(F)(F)CC4)nc3c2)C[C@@H](C(F)(F)F)NC1=O` (single isomer, unassigned) [Example 99] the figure was < 400 nM; with `Cc1nonc1C(=O)N[C@H](c1cn2ncc([C@@](C)(O)[C@@]3(C)C[C@@H](C(F)(F)F)NC3=O)cc2n1)C1CCC(F)(F)CC1` [Example 106, N—((S)-(4,4-Difluorocyclohexyl)(7-((R)-1-hydroxy-1-((3R,5S)-3-methyl-2-oxo-5-(trifluoromethyl)pyrrolidin-3-yl)ethyl)imidazo[1,2-b]pyridazin-2-yl)methyl)-4-methyl-1,2,5-oxadiazole-3-carboxamide], < 400 nM.
